Results as given in patent US20040072903A1, “Carboxyalkylether-acat inhibitors combinations” (priority 2002, published 2004).

Assays:
[1] = system: man; details: in man, Helsinki Heart Study; cited from earlier work
[2] = system: Chow-Fed Rat; experiment: Effects of Treatment on Lipid and Lipoprotein Parameters in the Chow-Fed Rat; assay type: in vivo; design: TG (Triglyceride) / Cholesterol (Total cholesterol) / VLDL (Very low-density cholesterol) / LDL (Low-density cholesterol) / HDL (High-density cholesterol): unit not given here

| SMILES | Cholesterol (Total cholesterol) ([2]; 10 mg/kg) | HDL (High-density cholesterol) ([2]; 10 mg/kg) | HDL/VLDL + LDL (HDL divided by the sum of VLDL and LDL) ([2]; 10 mg/kg) | LDL (Low-density cholesterol) ([2]; 10 mg/kg) | TG (Triglyceride) ([2]; 10 mg/kg) | VLDL (Very low-density cholesterol) ([2]; 10 mg/kg) | Cholesterol (Total cholesterol) ([2]; 30 mg/kg) | HDL (High-density cholesterol) ([2]; 30 mg/kg) | HDL/VLDL + LDL (HDL divided by the sum of VLDL and LDL) ([2]; 30 mg/kg) | LDL (Low-density cholesterol) ([2]; 30 mg/kg) | TG (Triglyceride) ([2]; 30 mg/kg) | VLDL (Very low-density cholesterol) ([2]; 30 mg/kg) | further results |
| --- | --- | --- | --- | --- | --- | --- | --- | --- | --- | --- | --- | --- | --- |
| Cc1ccc(C)c(OCCCC(C)(C)C(=O)O)c1 [gemfibrozil] | – | – | – | – | – | – | – | – | – | – | – | – | HDL-C [1]: increased; LDL-C [1]: decreased; incidence of coronary artery disease [1]: reduced |
| CC(C)c1cc(C(C)C)c(CC(=O)NS(=O)(=O)Oc2c(C(C)C)cccc2C(C)C)c(C(C)C)c1 [Avisimbe] | 36 ± 2.3 | 19.5 ± 1.7 | 1.2 ± 0.1 | 12.0 ± 1.1 | 85 ± 16.8 | 3.9 ± 0.7 | 37 ± 2.9 | 22.2 ± 1.8 | 1.6 ± 0.1 | 12.0 ± 0.8 | 65 ± 12.9 | 2.1 ± 0.6 | – |
| CC(C)(CCCCOCCCCC(C)(C)C(=O)O)C(=O)O [CI-1027] | 89 ± 8.5 | 76 ± 7.1 | 6.8 ± 0.7 | 9.1 ± 1.1 | 60 ± 8.8 | 2.8 ± 0.8 | 119 ± 21 | 100 ± 14.8 | 9.4 ± 2.7 | 17.6 ± 6.1 | 27 ± 2.0 | 0.7 ± 0.2 | Cholesterol (Total cholesterol) ([2]; 3 mg/kg): 40 ± 1.4; HDL (High-density cholesterol) ([2]; 3 mg/kg): 28 ± 1.0; HDL/VLDL + LDL (HDL divided by the sum of VLDL and LDL) ([2]; 3 mg/kg): 2.4 ± 0.1; LDL (Low-density cholesterol) ([2]; 3 mg/kg): 9.0 ± 0.5; TG (Triglyceride) ([2]; 3 mg/kg): 70 ± 2.8; VLDL (Very low-density cholesterol) ([2]; 3 mg/kg): 2.7 ± 0.3 |
